Source: paper PMC9303812, “Asymmetrically Substituted m‐Terphenyl Phosphates Inhibit the Transcription Factor STAT5a” (Chembiochem, 2021)
Where two headings read alike, the source gives them in different places.

Legend:
STAT3 = STAT3 (Homo sapiens, UniProt P40763); test: Fluorescence polarization (FP) binding assay, STAT3
Procedure: (§1) Table S1: Activities of test compounds against STAT5a and STAT5b in FP assays . Experiments were carried out in triplicate (n = 3) unless stated otherwise. n/a: not applicable.
(§2) [a]data taken from the literature.[1]
(§3) Ki values were calculated from IC50 values using the published equation.[2] […]
(§4) Table S2: Activities of 12 against STAT5 proteins in FP assays.
(§5) Fluorescence polarization assays
(§6) Fluorescence polarization assays were essentially carried out as previously described.[1] These assays quantitate to which extent a test compound is able to interfere with binding between a STAT protein and a fluorescein-labeled phosphotyrosine-containing peptide, which is known to bind to the SH2 domain of the respective STAT protein. The following protein […]
(§7) concentrations were used: 100 nM for STAT1, 150 nM for STAT3, 30 nM for STAT4, 180 nM for STAT5a, 90 nM for STAT5b and 105 nM for STAT6. All peptides were used at a concentration of 10 nM. The following peptides were used: 5 -carboxyfluorescein -GpYDKPHVL for STAT1; 5-carboxyfluorescein -GpYLPQTV-NH2 for STAT3; 5-carboxyfluorescein-GpYLPQNID-OH for STAT4; 5-carboxyfluorescein-GpYLVLDKW for STAT5a/b, and 5-carboxyfluorescein-GpYVPWQDLI-OH for STAT6. As a buffer system, 10 mM Tris (pH 8.0), 50 mM NaCl, 1 mM EDTA, 1 mM DTT, 0.1 % Nonidet P-40 substitute, and 2 % DMSO in water was used. All compounds tested were incubated for 1 h with the protein. Subsequently, the fluorescein-labeled peptide was added and the fluorescence polarization was measured with an Infinite F500 plate reader (Tecan) after another hour. IC50 values were converted to Ki-values using the published equation.[2]

STAT5b = molecular target: T1, STAT5b (Homo sapiens, UniProt P51692); test: Fluorescence polarization (FP) binding assay, STAT5b
T1 sequence (P51692 1-787): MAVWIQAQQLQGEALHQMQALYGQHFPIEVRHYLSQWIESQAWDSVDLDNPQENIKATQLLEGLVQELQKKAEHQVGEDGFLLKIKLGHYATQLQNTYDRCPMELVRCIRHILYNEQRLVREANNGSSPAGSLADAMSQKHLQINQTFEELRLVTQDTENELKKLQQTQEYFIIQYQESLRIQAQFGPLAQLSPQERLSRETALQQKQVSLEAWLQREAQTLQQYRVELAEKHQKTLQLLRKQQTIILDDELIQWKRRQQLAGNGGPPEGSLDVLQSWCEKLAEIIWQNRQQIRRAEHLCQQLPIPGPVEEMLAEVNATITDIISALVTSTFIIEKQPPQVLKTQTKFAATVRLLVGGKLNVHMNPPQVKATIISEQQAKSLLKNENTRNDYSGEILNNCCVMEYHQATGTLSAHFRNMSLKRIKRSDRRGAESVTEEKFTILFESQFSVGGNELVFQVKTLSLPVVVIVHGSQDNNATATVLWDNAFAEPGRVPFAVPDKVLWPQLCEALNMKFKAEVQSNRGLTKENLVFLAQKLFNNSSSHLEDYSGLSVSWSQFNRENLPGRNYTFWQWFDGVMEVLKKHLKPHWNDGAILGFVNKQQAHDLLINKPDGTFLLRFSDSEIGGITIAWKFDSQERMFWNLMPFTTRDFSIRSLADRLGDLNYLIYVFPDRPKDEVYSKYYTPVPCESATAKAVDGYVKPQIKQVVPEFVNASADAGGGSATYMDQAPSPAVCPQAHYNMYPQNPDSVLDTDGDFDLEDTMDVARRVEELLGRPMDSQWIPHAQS
Procedure: as §1, §2, §3, §4, §5, §6, §7

STAT3, sequence (P40763 whole entry, species assumed): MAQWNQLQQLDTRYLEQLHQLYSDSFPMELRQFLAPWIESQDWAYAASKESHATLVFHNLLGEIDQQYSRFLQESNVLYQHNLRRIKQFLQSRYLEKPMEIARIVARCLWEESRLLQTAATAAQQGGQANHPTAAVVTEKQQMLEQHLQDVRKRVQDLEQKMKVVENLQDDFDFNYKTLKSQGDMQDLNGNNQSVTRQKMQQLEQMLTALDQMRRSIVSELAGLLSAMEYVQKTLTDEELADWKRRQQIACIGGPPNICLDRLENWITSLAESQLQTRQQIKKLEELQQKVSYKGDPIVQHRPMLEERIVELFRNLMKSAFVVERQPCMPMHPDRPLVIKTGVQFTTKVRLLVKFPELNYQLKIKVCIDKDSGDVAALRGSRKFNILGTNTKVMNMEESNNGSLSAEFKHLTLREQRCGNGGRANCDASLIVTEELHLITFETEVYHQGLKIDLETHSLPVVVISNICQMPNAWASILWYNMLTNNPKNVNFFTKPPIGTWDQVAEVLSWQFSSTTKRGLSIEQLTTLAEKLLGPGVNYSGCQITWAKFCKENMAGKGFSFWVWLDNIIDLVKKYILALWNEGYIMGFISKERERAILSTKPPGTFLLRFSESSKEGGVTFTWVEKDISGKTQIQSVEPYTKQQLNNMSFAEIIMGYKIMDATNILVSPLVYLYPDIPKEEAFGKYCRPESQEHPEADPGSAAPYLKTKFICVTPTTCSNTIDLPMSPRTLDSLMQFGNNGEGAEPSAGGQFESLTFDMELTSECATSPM

Compound: COc1cc(-c2cc(OP(=O)(O)O)cc(-c3cc(F)c(F)c(F)c3)c2)cc(OC)c1OC [6 b]
- inhibition at 200 µM (STAT3; read-out: STAT3 inhibition at 200 μM): 25 ± 3%
- IC50 (STAT5b): 59.4 ± 3.4 µM
- Ki (STAT5b): 29.2 ± 1.7 µM

Compound: COc1cc(-c2cc(-c3cc(F)c(F)c(F)c3)cc(C(F)P(=O)(O)O)c2)cc(OC)c1OC (stereo not shown) [compound 12]
- IC50 (STAT3; FP assay): 145 ± 6.8 µM
- Ki (STAT3; FP assay, Ki calculated from IC50 (n=3)): 71.7 ± 3.4 µM
- Ki (STAT5b; FP assay, Ki calculated from IC50 (n=3; 6 a n=2), read-out: STAT5b Ki): 24.9 ± 3.3 µM
- IC50 (STAT5b; FP assay, n=3 (6a n=2), read-out: STAT5b IC50): 50.7 ± 6.8 µM
